Test results taken from ChEMBL document CHEMBL1147193, “New 5-substituted thiazolo[3,2-b][1,2,4]triazol-6-ones: synthesis and anticancer evaluation” (2007).

Columns and labels:
Assay type in all cases: functional
OVCAR-3 = test: Growth inhibition of human OVCAR-3 cells after 48 hrs by SRB protein assay; settings: OVCAR-3, 48 h; for TGI: read-out: Log TGI (converted)
OVCAR-4 = test: Growth inhibition of human OVCAR4 cells after 48 hrs by SRB protein assay; settings: OVCAR-4, 48 h; for TGI: read-out: Log TGI (converted)
OVCAR-5 = test: Growth inhibition of human OVCAR5 cells after 48 hrs by SRB protein assay; settings: OVCAR-5, 48 h
OVCAR-8 = test: Growth inhibition of human OVCAR8 cells after 48 hrs by SRB protein assay; settings: OVCAR-8, 48 h; for TGI: read-out: Log TGI (converted)
786-0 = test: Growth inhibition of human 786-0 cells after 48 hrs by SRB protein assay; settings: 786-0, 48 h; for TGI: read-out: Log TGI (converted)
ACHN = test: Growth inhibition of human ACHN cells after 48 hrs by SRB protein assay; settings: for TGI: read-out: Log TGI (converted)
CAKI-1 = test: Growth inhibition of human CAKI1 cells after 48 hrs by SRB protein assay; settings: CAKI-1, 48 h; for TGI: read-out: Log TGI (converted)
A549 = test: Growth inhibition of human A549/ATCC cells after 48 hrs by SRB protein assay; settings: A549, 48 h; for TGI: read-out: Log TGI (converted)
Hs-578T = test: Growth inhibition of human HS578T cells after 48 hrs by SRB protein assay; settings: for TGI: read-out: Log TGI (converted)
RPMI-8226 = test: Growth inhibition of human RPMI8226 cells after 48 hrs by SRB protein assay; settings: RPMI-8226, 48 h; for TGI: read-out: Log TGI (converted)
NCI-H460 = test: Anticancer activity against human NCI-H460 cells assessed as growth of cells at 100 uM relative to untreated cells
SF-268 [1] = test: Anticancer activity against human SF268 cells assessed as growth of cells at 100 uM relative to untreated cells
MCF7 [2] = test: Anticancer activity against human MCF7 cells assessed as growth of cells at 100 uM relative to untreated cells
K562 = test: Growth inhibition of human K562 cells after 48 hrs by SRB protein assay; settings: K562, 48 h
NCI-H226 = test: Growth inhibition of human NCI-H226 cells after 48 hrs by SRB protein assay; settings: NCI-H226, 48 h
NCI-H522 = test: Growth inhibition of human NCI-H522 cells after 48 hrs by SRB protein assay; settings: NCI-H522, 48 h; for TGI: read-out: Log TGI (converted)
HCC 2998 = test: Growth inhibition of human HCC2998 cells after 48 hrs by SRB protein assay; settings: HCC 2998, 48 h
HCT-116 = test: Growth inhibition of human HCT116 cells after 48 hrs by SRB protein assay; settings: HCT-116, 48 h; for TGI: read-out: Log TGI (converted)
HCT-15 = test: Growth inhibition of human HCT15 cells after 48 hrs by SRB protein assay; settings: HCT-15, 48 h; for TGI: read-out: Log TGI (converted)
HT-29 = test: Growth inhibition of human HT29 cells after 48 hrs by SRB protein assay; settings: HT-29, 48 h; for TGI: read-out: Log TGI (converted)
KM12 = test: Growth inhibition of human KM12 cells after 48 hrs by SRB protein assay; settings: KM12, 48 h; for TGI: read-out: Log TGI (converted)
SF-268 [3] = test: Growth inhibition of human SF268 cells after 48 hrs by SRB protein assay; settings: SF-268, 48 h; for TGI: read-out: Log TGI (converted)
SF-295 = test: Growth inhibition of human SF295 cells after 48 hrs by SRB protein assay; settings: SF-295, 48 h; for TGI: read-out: Log TGI (converted)
U-251 = test: Growth inhibition of human U251 cells after 48 hrs by SRB protein assay; settings: U-251, 48 h; for TGI: read-out: Log TGI (converted)
LOX IMVI = test: Growth inhibition of human LOX IMVI cells after 48 hrs by SRB protein assay; settings: for TGI: read-out: Log TGI (converted)
[4] = Growth inhibition of human MALME 3M cells after 48 hrs by SRB protein assay; settings: for TGI: read-out: Log TGI (converted)
M14 = test: Growth inhibition of human M14 cells after 48 hrs by SRB protein assay; settings: M14, 48 h; for TGI: read-out: Log TGI (converted)
SK-MEL-2 = test: Growth inhibition of human SK-MEL-2 cells after 48 hrs by SRB protein assay; settings: SK-MEL-2, 48 h; for TGI: read-out: Log TGI (converted)
SK-MEL-5 = test: Growth inhibition of human SK-MEL-5 cells after 48 hrs by SRB protein assay; settings: SK-MEL-5, 48 h; for TGI: read-out: Log TGI (converted)
UACC-257 = test: Growth inhibition of human UACC257 cells after 48 hrs by SRB protein assay; settings: UACC-257, 48 h; for TGI: read-out: Log TGI (converted)
UACC-62 = test: Growth inhibition of human UACC62 cells after 48 hrs by SRB protein assay; settings: UACC-62, 48 h; for TGI: read-out: Log TGI (converted)
RXF 393 = test: Growth inhibition of human RXF393 cells after 48 hrs by SRB protein assay; settings: RXF 393, 48 h; for TGI: read-out: Log TGI (converted)
UO-31 = test: Growth inhibition of human UO31 cells after 48 hrs by SRB protein assay; settings: UO-31, 48 h; for TGI: read-out: Log TGI (converted)
SN12C = test: Growth inhibition of human SN12C cells after 48 hrs by SRB protein assay; settings: for TGI: read-out: Log TGI (converted)
PC-3 = test: Growth inhibition of human PC3 cells after 48 hrs by SRB protein assay; settings: PC-3, 48 h; for TGI: read-out: Log TGI (converted)
MCF7 [5] = test: Growth inhibition of human MCF7 cells after 48 hrs by SRB protein assay; settings: MCF7, 48 h; for TGI: read-out: Log TGI (converted)
NCI/ADR-RES = test: Growth inhibition of human NCI/ADR-RES cells after 48 hrs by SRB protein assay; settings: for TGI: read-out: Log TGI (converted)
[6] = Growth inhibition of human MDA-MB-231/ATCC cells after 48 hrs by SRB protein assay; settings: MDA-MB-231, 48 h; for TGI: read-out: Log TGI (converted)
BT-549 = test: Growth inhibition of human BT549 cells after 48 hrs by SRB protein assay; settings: BT-549, 48 h
HOP-92 = test: Growth inhibition of human HOP92 cells after 48 hrs by SRB protein assay; settings: HOP-92, 48 h

## O=c1/c(=C/c2ccc(Cl)cc2)sc2ncnn12
OVCAR-3
  GI50: 13.2 µM
  TGI: 30.2 µM
OVCAR-4
  GI50: 17.4 µM
  TGI: 63.1 µM
OVCAR-5
  GI50: 20 µM
OVCAR-5; read-out: Log TGI (converted)
  TGI: 34.7 µM
OVCAR-8
  GI50: 12.6 µM
  TGI: 36.3 µM
786-0
  GI50: 13.5 µM
  TGI: 28.8 µM
ACHN
  GI50: 14.5 µM
  TGI: 38.9 µM
CAKI-1
  GI50: 19.5 µM
  TGI: 38.9 µM
A549
  GI50: 21.4 µM
  TGI: 83.2 µM
Hs-578T
  GI50: 14.1 µM
  TGI: 37.2 µM
RPMI-8226
  GI50: 2.95 µM
  TGI: 17.4 µM
NCI-H460
  Activity: 3%
SF-268 [1]
  Activity: 11%
MCF7 [2]
  Activity: 10%
K562
  GI50: 7.59 µM
K562; read-out: Log TGI (converted)
  TGI: 28.8 µM
NCI-H226
  GI50: 20 µM
NCI-H226; read-out: Log TGI (converted)
  TGI: 55 µM
NCI-H522
  GI50: 5.37 µM
  TGI: 18.6 µM
HCC 2998
  GI50: 18.2 µM
HCC 2998; read-out: Log TGI (converted)
  TGI: 32.4 µM
HCT-116
  GI50: 10.7 µM
  TGI: 25.7 µM
HCT-15
  GI50: 12 µM
  TGI: 34.7 µM
HT-29
  GI50: 15.1 µM
  TGI: 58.9 µM
KM12
  GI50: 10.5 µM
  TGI: 25.7 µM
SF-268 [3]
  GI50: 16.2 µM
  TGI: 58.9 µM
SF-295
  GI50: 17.8 µM
  TGI: 35.5 µM
U-251
  GI50: 10.5 µM
  TGI: 23.4 µM
LOX IMVI
  GI50: 10.7 µM
  TGI: 25.1 µM
[4]
  GI50: 11.2 µM
  TGI: 26.9 µM
M14
  GI50: 15.1 µM
  TGI: 35.5 µM
SK-MEL-2
  GI50: 12.6 µM
  TGI: 28.2 µM
SK-MEL-5
  GI50: 10.7 µM
  TGI: 23.4 µM
UACC-257
  GI50: 13.5 µM
  TGI: 30.2 µM
UACC-62
  GI50: 14.5 µM
  TGI: 29.5 µM
RXF 393
  GI50: 5.25 µM
  TGI: 18.2 µM
UO-31
  GI50: 12.3 µM
  TGI: 33.1 µM
SN12C
  GI50: 15.5 µM
  TGI: 49 µM
PC-3
  GI50: 11.7 µM
  TGI: 28.8 µM
MCF7 [5]
  GI50: 6.31 µM
  TGI: 30.9 µM
NCI/ADR-RES
  GI50: 26.3 µM
  TGI: 89.1 µM
[6]
  GI50: 19.1 µM
  TGI: 43.7 µM

## O=C(CC1Sc2ncnn2C1=O)Nc1ccccc1 (configuration not stated)
OVCAR-3
  GI50: 34.7 µM
  TGI: > 100 µM
OVCAR-4
  GI50: > 100 µM
  TGI: > 100 µM
OVCAR-8
  GI50: 25.7 µM
  TGI: 60.3 µM
786-0
  GI50: 19.5 µM
  TGI: 36.3 µM
ACHN
  GI50: 21.9 µM
  TGI: 41.7 µM
CAKI-1
  GI50: 23.4 µM
  TGI: 49 µM
A549
  GI50: > 100 µM
  TGI: > 100 µM
BT-549
  GI50: 0.339 µM
BT-549; read-out: Log TGI (converted)
  TGI: 1 µM
Hs-578T
  GI50: 12.3 µM
  TGI: 45.7 µM
RPMI-8226
  GI50: 20.9 µM
  TGI: 64.6 µM
NCI-H460
  Activity: 0%
SF-268 [1]
  Activity: 110%
MCF7 [2]
  Activity: 0%
HOP-92
  GI50: 25.1 µM
HOP-92; read-out: Log TGI (converted)
  TGI: 66.1 µM
NCI-H522
  GI50: 21.9 µM
  TGI: 42.7 µM
HCT-116
  GI50: 32.4 µM
  TGI: > 100 µM
HCT-15
  GI50: 33.1 µM
  TGI: > 100 µM
HT-29
  GI50: > 100 µM
  TGI: > 100 µM
KM12
  GI50: > 100 µM
  TGI: > 100 µM
SF-268 [3]
  GI50: > 100 µM
  TGI: > 100 µM
SF-295
  GI50: > 100 µM
  TGI: > 100 µM
U-251
  GI50: > 100 µM
  TGI: > 100 µM
LOX IMVI
  GI50: 25.7 µM
  TGI: 53.7 µM
[4]
  GI50: 19.1 µM
  TGI: 44.7 µM
M14
  GI50: 21.9 µM
  TGI: 45.7 µM
SK-MEL-2
  GI50: 21.9 µM
  TGI: 53.7 µM
SK-MEL-5
  GI50: 22.9 µM
  TGI: 47.9 µM
UACC-257
  GI50: 40.7 µM
  TGI: > 100 µM
UACC-62
  GI50: > 100 µM
  TGI: > 100 µM
RXF 393
  GI50: 18.6 µM
  TGI: 42.7 µM
UO-31
  GI50: 25.1 µM
  TGI: 57.5 µM
SN12C
  GI50: 27.5 µM
  TGI: 67.6 µM
PC-3
  GI50: 72.4 µM
  TGI: > 100 µM
MCF7 [5]
  GI50: 36.3 µM
  TGI: > 100 µM
NCI/ADR-RES
  GI50: 63.1 µM
  TGI: > 100 µM
[6]
  GI50: 19.1 µM
  TGI: 38.9 µM
